Laboratory results: US9340600B2 (Indiana University Research and Technology Corporation, priority 2012, dated 2016)
*1 amine or outer side, *2 acyl side, *3 side chain or, on linkers, in order; H or OH if unused. Where a SMILES comes first, the peptide text is derived from it. Side-chain parts run from the residue outwards. [ ]: non-standard residue; d: D form. The star is where a group is joined. γGlu = O=C(O)[C@H](CCC(=O)[*:2])N[*:1]; Palmitoyl = CCCCCCCCCCCCCCCC(=O)*; Aib = CC(C)(N)C(=O)O

Legend:
Assay type in all cases: cell-based
glucagon receptor = target: T1, glucagon receptor (Homo sapiens, UniProt P47871); test: cAMP induction, firefly luciferase-based reporter assay in HEK293 cells co-transfected with glucagon receptor; settings: EC50 at Glucagon Receptor, Table 2, analogs of SEQ ID NO: 18 varying at positions 16-21
T1 construct: expressed in transfected cells; host or cells: HEK293
T1 sequence (P47871 26-477): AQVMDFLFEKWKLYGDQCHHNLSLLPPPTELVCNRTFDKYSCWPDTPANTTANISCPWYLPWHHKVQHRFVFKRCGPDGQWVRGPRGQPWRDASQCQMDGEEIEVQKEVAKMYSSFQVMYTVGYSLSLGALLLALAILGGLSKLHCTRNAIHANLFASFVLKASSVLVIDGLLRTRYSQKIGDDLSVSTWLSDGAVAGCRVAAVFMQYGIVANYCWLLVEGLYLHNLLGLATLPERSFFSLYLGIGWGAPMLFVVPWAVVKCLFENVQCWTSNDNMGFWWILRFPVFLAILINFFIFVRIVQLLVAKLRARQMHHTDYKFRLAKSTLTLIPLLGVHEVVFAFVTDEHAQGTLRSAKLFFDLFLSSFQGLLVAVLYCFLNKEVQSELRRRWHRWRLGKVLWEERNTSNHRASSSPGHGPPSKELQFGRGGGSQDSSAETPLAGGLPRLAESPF
From the text: (§1) This example describes an exemplary method of testing the biological activity of the peptides of the present disclosures, which method involves assaying cAMP synthesis.

GIP receptor = target: T2, GIP receptor (Homo sapiens, UniProt P48546); test: cAMP induction, firefly luciferase-based reporter assay in HEK293 cells co-transfected with GIP receptor; settings: EC50 at GIP Receptor, Table 2, analogs of SEQ ID NO: 18 varying at positions 16-21
T2 construct: expressed in transfected cells; host or cells: HEK293
T2 sequence (P48546 22-466): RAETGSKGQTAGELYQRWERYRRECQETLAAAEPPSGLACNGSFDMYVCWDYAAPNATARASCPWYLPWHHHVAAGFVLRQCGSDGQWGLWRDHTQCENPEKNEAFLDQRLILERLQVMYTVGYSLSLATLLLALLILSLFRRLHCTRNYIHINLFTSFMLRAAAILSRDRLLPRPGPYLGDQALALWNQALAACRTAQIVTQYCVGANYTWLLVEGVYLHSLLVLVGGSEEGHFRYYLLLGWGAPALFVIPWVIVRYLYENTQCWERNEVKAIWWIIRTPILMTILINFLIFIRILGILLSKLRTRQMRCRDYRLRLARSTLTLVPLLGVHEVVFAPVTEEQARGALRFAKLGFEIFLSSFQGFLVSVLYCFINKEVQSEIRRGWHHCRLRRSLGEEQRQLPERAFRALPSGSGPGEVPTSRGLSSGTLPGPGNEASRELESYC
From the text: as §1

GLP-1 receptor = target: T3, GLP-1 receptor (Homo sapiens, UniProt P43220); test: cAMP induction, firefly luciferase-based reporter assay in HEK293 cells co-transfected with GLP-1 receptor; settings: EC50 at GLP-1 Receptor, Table 2, analogs of SEQ ID NO: 18 varying at positions 16-21
T3 construct: expressed in transfected cells; host or cells: HEK293
T3 sequence (P43220 24-463): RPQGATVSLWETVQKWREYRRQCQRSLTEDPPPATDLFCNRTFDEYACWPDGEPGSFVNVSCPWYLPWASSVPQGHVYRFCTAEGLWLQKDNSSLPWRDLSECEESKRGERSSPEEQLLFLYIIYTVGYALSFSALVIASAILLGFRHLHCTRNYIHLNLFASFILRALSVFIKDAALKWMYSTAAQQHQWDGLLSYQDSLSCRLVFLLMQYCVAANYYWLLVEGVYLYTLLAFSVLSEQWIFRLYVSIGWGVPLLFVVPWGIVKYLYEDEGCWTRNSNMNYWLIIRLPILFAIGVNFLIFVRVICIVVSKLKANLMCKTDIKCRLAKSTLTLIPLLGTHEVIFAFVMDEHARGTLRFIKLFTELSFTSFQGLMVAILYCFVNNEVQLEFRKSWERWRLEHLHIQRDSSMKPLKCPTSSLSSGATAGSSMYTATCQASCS
From the text: as §1

SMILES | EC50 (glucagon receptor) [pM] | EC50 (GIP receptor) [pM] | EC50 (GLP-1 receptor) [pM]
CCCCCCCCCCCCCCCC(=O)N[C@@H](CCC(=O)NCCCC[C@H](NC(=O)[C@H](CC(=O)O)NC(=O)[C@H](CO)NC(=O)[C@@H](NC(=O)[C@H](Cc1ccccc1)NC(=O)[C@@H](NC(=O)CNC(=O)[C@H](CCC(N)=O)NC(=O)C(C)(C)NC(=O)[C@@H](N)Cc1c[nH]cn1)[C@@H](C)O)[C@@H](C)O)C(=O)N[C@@H](CO)C(=O)N[C@@H](CCCCN)C(=O)N[C@@H](Cc1ccc(O)cc1)C(=O)N[C@@H](CC(C)C)C(=O)N[C@@H](CC(=O)O)C(=O)N[C@@H](C)C(=O)N[C@@H](CCCNC(=N)N)C(=O)N[C@@H](C)C(=O)N[C@@H](C)C(=O)NC(C)(C)C(=O)N[C@@H](CCC(=O)O)C(=O)N[C@@H](Cc1ccccc1)C(=O)N[C@H](C(=O)N[C@@H](CCC(N)=O)C(=O)N[C@@H](Cc1c[nH]c2ccccc12)C(=O)N[C@@H](CC(C)C)C(=O)N[C@@H](CC(C)C)C(=O)N[C@@H](CC(=O)O)C(=O)NCC(=O)NCC(=O)N1CCC[C@H]1C(=O)N[C@@H](CO)C(=O)N[C@@H](CO)C(=O)NCC(=O)N[C@@H](C)C(=O)N1CCC[C@H]1C(=O)N1CCC[C@H]1C(=O)N1CCC[C@H]1C(=O)N[C@@H](CO)C(N)=O)C(C)C)C(=O)O [compound 22] (H-H[Aib]QGTFTSDK([γGlu-Palmitoyl])SKYLDARAA[Aib]EFVQWLLDGGPSSGAPPPS-NH2) | 5 | 4 | 11
CCCCCCCCCCCCCCCC(=O)N[C@@H](CCC(=O)NCCCC[C@H](NC(=O)[C@H](CC(=O)O)NC(=O)[C@H](CO)NC(=O)[C@@H](NC(=O)[C@H](Cc1ccccc1)NC(=O)[C@@H](NC(=O)CNC(=O)[C@H](CCC(N)=O)NC(=O)C(C)(C)NC(=O)[C@@H](N)Cc1c[nH]cn1)[C@@H](C)O)[C@@H](C)O)C(=O)N[C@@H](CO)C(=O)N[C@@H](CCCCN)C(=O)N[C@@H](Cc1ccc(O)cc1)C(=O)N[C@@H](CC(C)C)C(=O)N[C@@H](CC(=O)O)C(=O)N[C@@H](CCC(=O)O)C(=O)N[C@@H](CCCNC(=N)N)C(=O)N[C@@H](C)C(=O)NC(C)(C)C(=O)N[C@@H](C)C(=O)N[C@@H](CCC(=O)O)C(=O)N[C@@H](Cc1ccccc1)C(=O)N[C@H](C(=O)N[C@@H](CCC(N)=O)C(=O)N[C@@H](Cc1c[nH]c2ccccc12)C(=O)N[C@@H](CC(C)C)C(=O)N[C@@H](CC(C)C)C(=O)N[C@@H](CC(=O)O)C(=O)NCC(=O)NCC(=O)N1CCC[C@H]1C(=O)N[C@@H](CO)C(=O)N[C@@H](CO)C(=O)NCC(=O)N[C@@H](C)C(=O)N1CCC[C@H]1C(=O)N1CCC[C@H]1C(=O)N1CCC[C@H]1C(=O)N[C@@H](CO)C(N)=O)C(C)C)C(=O)O [compound 23] (H-H[Aib]QGTFTSDK([γGlu-Palmitoyl])SKYLDERA[Aib]AEFVQWLLDGGPSSGAPPPS-NH2) | 261 | 13 | 7
CCCCCCCCCCCCCCCC(=O)N[C@@H](CCC(=O)NCCCC[C@H](NC(=O)[C@H](CC(=O)O)NC(=O)[C@H](CO)NC(=O)[C@@H](NC(=O)[C@H](Cc1ccccc1)NC(=O)[C@@H](NC(=O)CNC(=O)[C@H](CCC(N)=O)NC(=O)C(C)(C)NC(=O)[C@@H](N)Cc1c[nH]cn1)[C@@H](C)O)[C@@H](C)O)C(=O)N[C@@H](CO)C(=O)N[C@@H](CCCCN)C(=O)N[C@@H](Cc1ccc(O)cc1)C(=O)N[C@@H](CC(C)C)C(=O)N[C@@H](CC(=O)O)C(=O)NC(C)(C)C(=O)N[C@@H](CCCNC(=N)N)C(=O)N[C@@H](C)C(=O)N[C@@H](C)C(=O)NC(C)(C)C(=O)N[C@@H](CCC(=O)O)C(=O)N[C@@H](Cc1ccccc1)C(=O)N[C@H](C(=O)N[C@@H](CCC(N)=O)C(=O)N[C@@H](Cc1c[nH]c2ccccc12)C(=O)N[C@@H](CC(C)C)C(=O)N[C@@H](CC(C)C)C(=O)N[C@@H](CC(=O)O)C(=O)NCC(=O)NCC(=O)N1CCC[C@H]1C(=O)N[C@@H](CO)C(=O)N[C@@H](CO)C(=O)NCC(=O)N[C@@H](C)C(=O)N1CCC[C@H]1C(=O)N1CCC[C@H]1C(=O)N1CCC[C@H]1C(=O)N[C@@H](CO)C(N)=O)C(C)C)C(=O)O [compound 24] (H-H[Aib]QGTFTSDK([γGlu-Palmitoyl])SKYLD[Aib]RAA[Aib]EFVQWLLDGGPSSGAPPPS-NH2) | 2 | 5 | 10
CCCCCCCCCCCCCCCC(=O)N[C@@H](CCC(=O)NCCCC[C@H](NC(=O)[C@H](CC(=O)O)NC(=O)[C@H](CO)NC(=O)[C@@H](NC(=O)[C@H](Cc1ccccc1)NC(=O)[C@@H](NC(=O)CNC(=O)[C@H](CCC(N)=O)NC(=O)C(C)(C)NC(=O)[C@@H](N)Cc1c[nH]cn1)[C@@H](C)O)[C@@H](C)O)C(=O)N[C@@H](CO)C(=O)N[C@@H](CCCCN)C(=O)N[C@@H](Cc1ccc(O)cc1)C(=O)N[C@@H](CC(C)C)C(=O)N[C@@H](CC(=O)O)C(=O)N[C@@H](Cc1c[nH]cn1)C(=O)N[C@@H](CCCNC(=N)N)C(=O)N[C@@H](C)C(=O)N[C@@H](C)C(=O)NC(C)(C)C(=O)N[C@@H](CCC(=O)O)C(=O)N[C@@H](Cc1ccccc1)C(=O)N[C@H](C(=O)N[C@@H](CCC(N)=O)C(=O)N[C@@H](Cc1c[nH]c2ccccc12)C(=O)N[C@@H](CC(C)C)C(=O)N[C@@H](CC(C)C)C(=O)N[C@@H](CC(=O)O)C(=O)NCC(=O)NCC(=O)N1CCC[C@H]1C(=O)N[C@@H](CO)C(=O)N[C@@H](CO)C(=O)NCC(=O)N[C@@H](C)C(=O)N1CCC[C@H]1C(=O)N1CCC[C@H]1C(=O)N1CCC[C@H]1C(=O)N[C@@H](CO)C(N)=O)C(C)C)C(=O)O [compound 25] (H-H[Aib]QGTFTSDK([γGlu-Palmitoyl])SKYLDHRAA[Aib]EFVQWLLDGGPSSGAPPPS-NH2; N-terminus assumed) | 5 | 3 | 4
CCCCCCCCCCCCCCCC(=O)N[C@@H](CCC(=O)NCCCC[C@H](NC(=O)[C@H](CC(=O)O)NC(=O)[C@H](CO)NC(=O)[C@@H](NC(=O)[C@H](Cc1ccccc1)NC(=O)[C@@H](NC(=O)CNC(=O)[C@H](CCC(N)=O)NC(=O)C(C)(C)NC(=O)[C@@H](N)Cc1c[nH]cn1)[C@@H](C)O)[C@@H](C)O)C(=O)N[C@@H](CO)C(=O)N[C@@H](CCCCN)C(=O)N[C@@H](Cc1ccc(O)cc1)C(=O)N[C@@H](CC(C)C)C(=O)N[C@@H](CC(=O)O)C(=O)N[C@@H](CCC(=O)O)C(=O)N[C@@H](CCC(N)=O)C(=O)N[C@@H](C)C(=O)N[C@@H](C)C(=O)NC(C)(C)C(=O)N[C@@H](CCC(=O)O)C(=O)N[C@@H](Cc1ccccc1)C(=O)N[C@H](C(=O)N[C@@H](CCC(N)=O)C(=O)N[C@@H](Cc1c[nH]c2ccccc12)C(=O)N[C@@H](CC(C)C)C(=O)N[C@@H](CC(C)C)C(=O)N[C@@H](CC(=O)O)C(=O)NCC(=O)NCC(=O)N1CCC[C@H]1C(=O)N[C@@H](CO)C(=O)N[C@@H](CO)C(=O)NCC(=O)N[C@@H](C)C(=O)N1CCC[C@H]1C(=O)N1CCC[C@H]1C(=O)N1CCC[C@H]1C(=O)N[C@@H](CO)C(N)=O)C(C)C)C(=O)O [compound 26] (H-H[Aib]QGTFTSDK([γGlu-Palmitoyl])SKYLDEQAA[Aib]EFVQWLLDGGPSSGAPPPS-NH2) | 4 | 1 | 1
CCCCCCCCCCCCCCCC(=O)N[C@@H](CCC(=O)NCCCC[C@H](NC(=O)[C@H](CC(=O)O)NC(=O)[C@H](CO)NC(=O)[C@@H](NC(=O)[C@H](Cc1ccccc1)NC(=O)[C@@H](NC(=O)CNC(=O)[C@H](CCC(N)=O)NC(=O)C(C)(C)NC(=O)[C@@H](N)Cc1c[nH]cn1)[C@@H](C)O)[C@@H](C)O)C(=O)N[C@@H](CO)C(=O)N[C@@H](CCCCN)C(=O)N[C@@H](Cc1ccc(O)cc1)C(=O)N[C@@H](CC(C)C)C(=O)N[C@@H](CC(=O)O)C(=O)N[C@@H](CCC(=O)O)C(=O)N[C@@H](CCCNC(=N)N)C(=O)N[C@@H](C)C(=O)NC(C)(C)C(=O)N[C@@H](CCCCN)C(=O)N[C@@H](CCC(=O)O)C(=O)N[C@@H](Cc1ccccc1)C(=O)N[C@H](C(=O)N[C@@H](CCC(N)=O)C(=O)N[C@@H](Cc1c[nH]c2ccccc12)C(=O)N[C@@H](CC(C)C)C(=O)N[C@@H](CC(C)C)C(=O)N[C@@H](CC(=O)O)C(=O)NCC(=O)NCC(=O)N1CCC[C@H]1C(=O)N[C@@H](CO)C(=O)N[C@@H](CO)C(=O)NCC(=O)N[C@@H](C)C(=O)N1CCC[C@H]1C(=O)N1CCC[C@H]1C(=O)N1CCC[C@H]1C(=O)N[C@@H](CO)C(N)=O)C(C)C)C(=O)O [compound 27] (H-H[Aib]QGTFTSDK([γGlu-Palmitoyl])SKYLDERA[Aib]KEFVQWLLDGGPSSGAPPPS-NH2) | 165 | 4 | 2
